# Results from US7612035B2, “Inhibition of mitogen-activated protein kinase (MAPK) pathway: a selective therapeutic strategy against melanoma” (Van Andel Research Institute, priority 2000, dated 2009).
# “Also recorded” adds a separate entry of the source. Where two headings read alike, the source gives them in different places. Marks after values point to notes of the source that are not given here.
# Columns and labels:
# SK-MEL-5 [1] = details: mouse, in vivo, ip, 40 mg/kg/day; cited from earlier work
# melanoma xenografts = details: mouse, in vivo, ip; cited from earlier work
# M14 = details: mouse, in vivo, ip, 90 mg/kg/day; cited from earlier work
# SK-MEL-2 [2] = details: mouse, in vivo, ip, 90 mg/kg/day; cited from earlier work
# LOX-IMVI [3] = details: mouse, in vivo, ip, cited from earlier work
# MALME-3M [4] = details: mouse, in vivo, ip, 90 mg/kg/day; cited from earlier work
# UACC-62 [5] = details: mouse, in vivo, ip, 90 mg/kg/day; cited from earlier work
# UACC-257 [6] = details: mouse, in vivo, ip, 90 mg/kg/day; cited from earlier work
# LOX-IMVI [7] = type: cell-based, human; details: 72 h, average of four replicates minus background (PA alone or DMSO), LF 0.1 μg/ml with PA, PD98059 20 μM every 24 h, U0126 10 μM single dose
# UACC-257 [8] = type: cell-based, human; details: 72 h, average of four replicates minus background (PA alone or DMSO), LF 0.1 μg/ml with PA, PD98059 20 μM every 24 h, U0126 10 μM single dose
# SK-MEL-2 [9] = type: cell-based, human; details: 72 h, average of four replicates minus background (PA alone or DMSO), LF 0.1 μg/ml with PA, PD98059 20 μM every 24 h, U0126 10 μM single dose
# [10] = test system: normal human melanocytes (NHEM); experiment: Cell cycle profile by flow cytometry; type: cell-based; details: 72 hours with PD98059 (and U0126) or 96 hours with LF
# Protocol: (§1) Cell cycle profiles and DNA content were analyzed by flow cytometry, as previously described (Koo, H.-M. et al. Canc Res 59:6057-6062 (1999)). Total cells including floating cells were harvested, washed in cold PBS and fixed in cold 70% ethanol overnight. The fixed cells were rehydrated in PBS containing 1% fetal bovine serum, washed in PBS, incubated with DNase-free RNase at room temperature for 30 min, and then stained with 50 μg/ml propidium iodide overnight at 4° C. in the dark. The stained samples were analyzed in a FACSCalibur (Becton Dickinson Biosciences) for DNA content and cell cycle profiles.
# SK-MEL-28 = type: cell-based, human; details: 72 h, average of four replicates minus background (PA alone or DMSO), LF 0.1 μg/ml with PA, PD98059 20 μM every 24 h, U0126 10 μM single dose
# MALME-3M [11] = type: cell-based, human; details: 72 h, average of four replicates minus background (PA alone or DMSO), LF 0.1 μg/ml with PA, PD98059 20 μM every 24 h, U0126 10 μM single dose
# UACC-62 [12] = type: cell-based, human; details: 72 h, average of four replicates minus background (PA alone or DMSO), LF 0.1 μg/ml with PA, PD98059 20 μM every 24 h, U0126 10 μM single dose
# [13] = test system: normal human melanocytes (NHEM); type: cell-based; details: for apoptosis (in words): normal melanocytes; for % Apoptosis: Normal Melanocytes, treatment for 72 hours
# MAPK (ERK) = experiment: Active phospho-MAPK immunoblot in normal melanocytes; type: cell-based, human; details: 72 hours with PD98059 (and U0126) or 96 hours with LF
# Protocol: (§2) Western blot analysis was performed as described previously (Koo et al., 1999, supra). The primary antibodies used were anti-active MAPK from Promega, and anti-ERK1 (K-23) and anti-ERK2 (C-14) from Santa Cruz Biotechnology.
# SK-MEL-5 [14] = type: cell-based, human; details: 72 h, average of four replicates minus background (PA alone or DMSO), LF 0.1 μg/ml with PA, PD98059 20 μM every 24 h, U0126 10 μM single dose
# M14-MEL = type: cell-based, human; details: for Apoptosis (%) Experiment I: M14-MEL, 72 h, average of four replicates minus background (PA alone or DMSO), LF 0.1 μg/ml with PA, PD98059 20 μM every 24 h, U0126 10 μM single dose; for % Apoptosis: M14-MEL Melanoma Cells, treatment for 72 hours
# MAPK (ERK1/2) = experiment: Western blot with phospho-specific anti-ERK antibody in M14-MEL cells; type: cell-based, human; details: M14-MEL melanoma cells
# Protocol: as §2
# MDA-MB-435 and MDA-N = experiment: NCI-ADS growth inhibition, breast carcinoma lines; type: cell-based, human; details: NCI-ADS breast carcinoma lines MDA-MB-435 and MDA-N
# MALME-3M [15] = experiment: Cell cycle profile by flow cytometry; type: cell-based, human; details: within 24 hours of treatment
# Protocol: as §1
# In most cell types, activation of the MAPK pathway is required for progression through the restriction point in G1 phase of the cell cycle (reviewed in Roussel et al., supra).
# ERK1 and 2 = experiment: Active phospho-MAPK immunoblot in MALME-3M cells; type: cell-based, human
# Protocol: as §2
# [16] = 72 hours with PD98059 (and U0126) or 96 hours with LF
smiles,measurement,setting,value
COc1cccc2c1[C@H](CO)N1[C@@H](C#N)[C@@H]3C[C@@H](C(=O)O)[C@H]([C@@H]1C2)N3C [DX-52-1],Growth delay: %(T − C)/C,SK-MEL-5 [1],27%
same,Optimal % T/C,SK-MEL-5 [1],49 (33) %
same,Regressions Complete,SK-MEL-5 [1],0/6
same,Regressions Partial,SK-MEL-5 [1],0/6
same,day on which the optimal (minimum) T/C was attained,SK-MEL-5 [1],49 (33)
same,melanoma xenografts with statistically significant antitumor activity,melanoma xenografts,5/7
same,Growth delay: %(T − C)/C,M14,56%
same,Optimal % T/C,M14,19 (26) %
same,Regressions Complete,M14,0/6
same,Regressions Partial,M14,0/6
same,day on which the optimal (minimum) T/C was attained,M14,19 (26)
same,Growth delay: %(T − C)/C,SK-MEL-2 [2],118%
same,Optimal % T/C,SK-MEL-2 [2],10 (32) %
same,Regressions Complete,SK-MEL-2 [2],2/6
same,Regressions Partial,SK-MEL-2 [2],0/6
same,day on which the optimal (minimum) T/C was attained,SK-MEL-2 [2],10 (32)
same,Growth delay: %(T − C)/C,LOX-IMVI [3]; 60 mg/kg/day,389%
same,Optimal % T/C,LOX-IMVI [3]; 60 mg/kg/day,−100^b %
same,Regressions Complete,LOX-IMVI [3]; 60 mg/kg/day,4/6
same,Regressions Partial,LOX-IMVI [3]; 60 mg/kg/day,016
same,Growth delay: %(T − C)/C,LOX-IMVI [3]; 90 mg/kg/day,181%
same,Optimal % T/C,LOX-IMVI [3]; 90 mg/kg/day,−54%
same,Regressions Complete,LOX-IMVI [3]; 90 mg/kg/day,2/10
same,Regressions Partial,LOX-IMVI [3]; 90 mg/kg/day,3/10
same,Growth delay: %(T − C)/C,MALME-3M [4],4%
same,Optimal % T/C,MALME-3M [4],64 (72) %
same,Regressions Complete,MALME-3M [4],0/6
same,Regressions Partial,MALME-3M [4],0/6
same,day on which the optimal (minimum) T/C was attained,MALME-3M [4],64 (72)
same,Growth delay: %(T − C)/C,UACC-62 [5],185%
same,Optimal % T/C,UACC-62 [5],18 (34) %
same,Regressions Complete,UACC-62 [5],0/7
same,Regressions Partial,UACC-62 [5],0/7
same,day on which the optimal (minimum) T/C was attained,UACC-62 [5],18 (34)
same,Growth delay: %(T − C)/C,UACC-257 [6],35%
same,Optimal % T/C,UACC-257 [6],12 (27) %
same,Regressions Complete,UACC-257 [6],0/6
same,Regressions Partial,UACC-257 [6],0/6
same,day on which the optimal (minimum) T/C was attained,UACC-257 [6],12 (27)
N#CC(=C(/N)Sc1ccccc1N)/C(C#N)=C(\N)Sc1ccccc1N [U0126],Apoptosis (%) Experiment I,LOX-IMVI [7],2.3%
same,Apoptosis (%) Experiment I,UACC-257 [8],4.7%
same,Apoptosis (%) Experiment I,SK-MEL-2 [9],35.4%
same,cell cycle response,[10],induced G1 arrest
same,Apoptosis (%) Experiment I,SK-MEL-28,1.1%
same,Apoptosis (%) Experiment I,MALME-3M [11],48.3%
same,Apoptosis (%) Experiment I,UACC-62 [12],8.3%
same,apoptosis (in words),[13]; [16],no apoptosis was observed; also recorded: did not induce apoptosis
same,MAPK (ERK) activation,MAPK (ERK),inhibited
same,Apoptosis (%) Experiment I,SK-MEL-5 [14],1.9%
same,Apoptosis (%) Experiment I,M14-MEL,36.0%
O=C(NOCC1CC1)c1ccc(F)c(F)c1Nc1ccc(I)cc1Cl [PD184352],% Apoptosis,[13]; 2 μM,0.3%
same,% Apoptosis,M14-MEL; 1 μM,24.5%
same,% Apoptosis,M14-MEL; 5 μM,37.3%
same,% Apoptosis,M14-MEL; 10 μM,48.8%
same,% Apoptosis,M14-MEL; 20 μM,71.0%
same,potency relative to PD98059,"M14-MEL; apoptosis in M14-MEL, 72 hours","more potent, possibly by several fold"
same,selectivity melanoma cells vs normal human melanocytes,"M14-MEL; apoptosis, 72 hours",selectively cytotoxic to human melanoma cells
same,activation of MAPK (ERK1/2),MAPK (ERK1/2),completely blocked
COc1cccc(-c2cc(=O)c3ccccc3o2)c1N [PD98059],Apoptosis (%) Experiment I,LOX-IMVI [7],3.6%
same,Apoptosis (%) Experiment I,UACC-257 [8],19.7%
same,Apoptosis (%) Experiment I,SK-MEL-2 [9],23.4%
same,cell cycle response,[10],induced G1 arrest
same,Apoptosis (%) Experiment I,SK-MEL-28,2.5%
same,sensitivity to growth inhibition,MDA-MB-435 and MDA-N,as sensitive as melanoma cell lines
same,Apoptosis (%) Experiment I,MALME-3M [11],47.9%
same,Apoptosis (%) Experiment I,UACC-62 [12],30.5%
same,cell cycle progression,MALME-3M [15],noticeably blocked in the G1 phase
same,% Apoptosis,[13]; 20 μM,0%
same,apoptosis (in words),[13]; [16],no apoptosis was observed
same,apoptosis (in words),[13]; PD98059 for 96 hours,apoptosis was not detected
same,MAPK (ERK) activation,MAPK (ERK),inhibited
same,Apoptosis (%) Experiment I,SK-MEL-5 [14],9.1%
same,% Apoptosis,M14-MEL; 20 μM,38.9%
same,Apoptosis (%) Experiment I,M14-MEL,53.0%
same,activation of ERK1 and 2,ERK1 and 2,inhibited
